Experimental data: patent EP1566447A1, “Glimepiride- and insulin-induced glycosylphosphatidylinositol-specific phospholipase C regulation” (priority 2004, dated 2005)
“Also recorded” adds a separate entry of the source.

Experiments:
lipoprotein lipase (LPL) = target: T1, lipoprotein lipase (LPL) (Bos taurus, UniProt P11151); assay: selectivity: lipoprotein lipase assay; type: biochemical, bovine; details: 50 µM
T1 construct: purchased Sigma/Aldrich (Deisenhofen, Germany); host or cells: bovine milk
T1 sequence (P11151 29-478): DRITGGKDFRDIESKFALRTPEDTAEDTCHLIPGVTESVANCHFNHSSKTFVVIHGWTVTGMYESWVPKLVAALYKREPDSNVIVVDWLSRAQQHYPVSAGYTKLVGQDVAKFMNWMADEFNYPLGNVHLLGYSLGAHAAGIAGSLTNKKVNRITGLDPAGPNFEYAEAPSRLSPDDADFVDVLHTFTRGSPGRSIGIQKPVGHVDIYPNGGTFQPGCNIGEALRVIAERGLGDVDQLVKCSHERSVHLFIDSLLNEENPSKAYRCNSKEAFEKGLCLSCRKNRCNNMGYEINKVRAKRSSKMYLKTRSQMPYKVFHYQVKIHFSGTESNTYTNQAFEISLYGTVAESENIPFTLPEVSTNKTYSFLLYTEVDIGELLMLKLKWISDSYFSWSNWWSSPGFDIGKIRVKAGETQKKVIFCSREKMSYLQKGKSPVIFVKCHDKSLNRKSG
Method: Hormone-sensitive lipase (HSL) and lipoprotein lipase (LPL) were measured using a radiolabeled triolein droplet emulsion as described in "Vertesy et al., (2002) Journal Antibiotics 55:480-494". Pancreatic lipase (PL) was determined by incubation of 0.25 mmol tributyrin in 2 ml of 5 mM Tris/HCl (pH 6.5), 6 mM sodium taurodeoxycholate, 150 mM NaCl, 1 mM CaCl2 with porcine PL and colipase in the same buffer using a recording pH stat (stirring at 1000 rpm at 25°C) with the pH adjusted to 6.5. PC-PLC was assayed by incubation of 0.2 ml of 10 mM dipalmitoyllecithin, 0.1 ml of 10 mM SDC and 0.1 ml of 0.03 M CaCl2 with bacterial PC-PLC (in 50 mM Tris/HCl, pH 7.5, 0.1 % BSA) for 10 min at 37°C. The reaction was terminated by addition of 0.1 ml of 50 % TCA and subsequently of 2.5 ml of […]. After centrifugation (1500xg, 15 min), 0.2-ml portions of the upper methanol/water phase (~ 1.33 ml) was removed, supplemented with 0.5 ml of 60 % HClO4, then heated at 170°C for 1 h and finally analyzed for inorganic phosphate. Mammalian PI-PLC was measured by incubation of 0.1 ml of 10 mM PI, 0.1 ml of 0.8 % sodium deoxycholate, 0.1 % BSA, 0.2 ml of 100 mM sodium borate (pH 7.5) and rat liver PI-PLC for 20 min at 37°C. The reaction was terminated and further processed as described for the PC-PLC. […] Radioactive phosphatidic acid was detected by phosphorimaging. […]

rat adipocytes = assay: isoproterenol-induced lipolysis (glycerol release); type: cell-based
Method: Electroporation was performed as described in "Müller, G. et al., (2000) Mol. Cell. Biol. 20: 4708-4723". Lipolysis was determined as release of glycerol or fluorescent NBD-FA from prelabeled and isoproterenol-stimulated adipocytes as described in "Müller, G. et al., (2003) Biochimie 85: 1245-1256". Gce1 was detected by photolabeling of solubilized plasma membranes or hc/IcDIGs (10-50 µg protein) with 8-N3-[^32P]cAMP and subsequent phosphorimaging as described in "Müller, G. et al., (1994) Biochemistry 33: 12149-12159". 5'-Nuc, aP and AChE activities were measured according to "Eliakim, R. et al., (1990) Biochim. Biophys. Acta 1355: 293-302". Protein was determined using the BCA protein determination kit from Pierce (Rockford, IL) and BSA as calibration standard. SDS-PAGE was performed using precast gels (Novex, San Diego, CA; 10 % Bis-Tris resolving gel, morpholinopropanesulfonic acid-SDS running buffer). Lumiimages were evaluated on a Lumilmager using Lumilmager software (Roche Diagnostics). Phosphor- and fluorescence images were processed and quantified using the Storm 860 Phosphorlmager system (Molecular Dynamics, Gelsenkirchen, Germany). Figures were constructed using the Adobe Photoshop software (Adobe Systems, Mountain View, CA).
Fig. 8: Effect of GPI-2350 on the glimepiride/insulin-induced metabolic activity. Isolated rat adipocytes were treated (5 min, 37°C) without or with GPI-2350 (Panel A, 50 µM; Panel B, increasing conc.; Panel C, 5 µM, 50 µM) and then incubated (15 min, 37°C) in the absence or presence of insulin (Ins, 10 nM) or glimepiride (Gli, 20 µM or increasing conc.) as indicated. The adipocytes were then assayed for glucose transport and isoproterenol-induced lipolysis. The activity is given relative to the absence of GPI-2350 in the control reaction (Panels A, basal) or in the insulin- and glimepiride-stimulated state (Panels B and C, set at 100). Means ± SD of at least 5 independent cell incubations with activity measurements in triplicate each are given.

SMILES: CCCCCCCCCCCCP1(=O)O[C@@H]2[C@H](O)[C@@H](O)[C@H](O)[C@@H](O)[C@@H]2O1 (mixture of isomers) [GPI-2350, myo-inositol-1,2-cyclo-dodecylphosphonic acid]
- effect on lipase activity (lipoprotein lipase (LPL)): not significantly affected
- effect on inhibition of lipolysis in response to glimepiride (rat adipocytes; 50 µM): almost complete blockade; also recorded: lower than control values
- IC50 (rat adipocytes; Rattus norvegicus, Adipocyte): 2 to 5 µM
- inhibition at 50 µM (rat adipocytes; Rattus norvegicus, Adipocyte, 50 µM, insulin 10 nM, read-out: reduction of insulin inhibition of isoproterenol-induced lipolysis): ≤ 33%
